According to PMC10650714, “Double Attack to Oxidative Stress in Neurodegenerative Disorders: MAO-B and Nrf2 as Elected Targets” (Molecules, 2023):

How the values were obtained:
[1] = target: T1, recombinant hMAO-B (Homo sapiens, UniProt P27338); test: Time-dependent inhibition study on hMAO-B; format: biochemical; details: pre-incubation 0 to about 20 min, 5 and 20 µM
T1 construct: purchased Fluka-Sigma-Aldrich s.r.l; (Italy); host or cells: Baculovirus infected BT1 cells
T1 sequence (P27338 1-520): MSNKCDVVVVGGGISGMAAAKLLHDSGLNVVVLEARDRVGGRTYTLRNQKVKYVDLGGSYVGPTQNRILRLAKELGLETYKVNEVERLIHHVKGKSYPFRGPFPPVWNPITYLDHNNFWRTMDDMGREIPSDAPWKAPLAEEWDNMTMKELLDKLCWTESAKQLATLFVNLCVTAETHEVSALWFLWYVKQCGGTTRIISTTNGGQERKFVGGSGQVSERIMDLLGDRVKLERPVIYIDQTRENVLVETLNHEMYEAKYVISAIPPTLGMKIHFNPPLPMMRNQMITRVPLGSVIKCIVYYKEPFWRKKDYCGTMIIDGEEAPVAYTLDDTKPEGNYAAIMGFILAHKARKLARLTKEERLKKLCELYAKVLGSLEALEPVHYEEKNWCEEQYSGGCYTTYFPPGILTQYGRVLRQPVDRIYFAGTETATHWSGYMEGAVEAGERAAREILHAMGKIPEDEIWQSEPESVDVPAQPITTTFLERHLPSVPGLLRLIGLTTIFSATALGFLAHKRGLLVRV
Method: Time-dependent inhibition studies. The time-dependent inactivation by 2 was performed as previously reported. In detail, recombinant hMAO-B was pre-incubated in the K/Pi buffer for periods from 0 to about 20 min, at 37 °C in the absence (control sample) and in the presence of compound 2 (5 and 20 µM). After various pre-incubation times (at least 5 times after mixing of enzyme and inhibitor), the residual enzyme activity was determined: an aliquot of sample was withdrawn and diluted in the assay buffer (50-fold dilution) and then, the substrate was added under a “saturating” condition (Kyn = 300 µM).

[2] = system: SH-SY5Y human neuroblastoma cells; test: Cell viability, MTT assay; format: cell-based; details: 0.5 to 50 μM, 24 h
Method: To define the concentration range to use in the in vitro experimental settings, the cytotoxicity of compounds 1–5 was evaluated in SH-SY5Y human neuroblastoma cells, in comparison with CAPE, the reference compound for Nrf2 activation (Figure 5). Cells were treated with compounds at concentrations ranging from 0.5 to 50 μM for 24 h and cell viability was evaluated via MTT assay. All compounds were well tolerated at each concentration, resulting in no or very low reduction in cell viability.
MTT assay, based on the mitochondrial dehydrogenase activity that reduces 3-(4,5-dimethylthiazol-2-yl)-2,5-diphenyl-tetrazolium bromide (MTT, Sigma, St Louis, MO, USA) is one of the standard assays used to measure the cellular metabolic activity as an indicator of cell viability, proliferation and cytotoxicity in a quantitative colorimetric assay. At day 0, SH-SY5Y cells were plated at a density of 2.5 × 10^4 viable cells per well in 96-well plates. After treatment, according to the experimental setting, cells were exposed to an MTT solution in serum-free medium (1 mg/mL). Following 4 h of incubation with MTT and treatment with SDS for 24 h, cell viability reduction was quantified by using a Synergy HT multidetection microplate reader (Bio-Tek).

melting point: 150 to 151 °C
Structure (SMILES): O=C(/C=C/c1ccc(O)c(O)c1)Oc1ccc(CC2SC(=O)NC2=O)cc1 (stereo not drawn) [Compound 2, 4-((2,4-Dioxothiazolidin-5-yl)methyl)phenyl (E)-3-(3,4-Dihydroxyphenyl)acrylate]
time-dependent inhibition / inactivation of hMAO-B [1]: no inactivation and no time-dependent inhibition
cell viability / cytotoxicity [2]: not cytotoxic
